Measurements: US20230049952A1, “METHODS AND COMPOUNDS FOR RESTORING MUTANT P53 FUNCTION” (PMV Pharmaceuticals, Inc., priority 2020, published 2023)

Tested on: NF-κB signaling pathway in MT373 tumors
Test: MT373 syngeneic sarcoma model: mouse NF-κB signaling pathway profiling panel
Assay type: in vivo

With `CCn1c(C#CCNc2ccccc2)cc2cc(CNC3CCN(C)CC3)ccc21` [Compound 1, 1-Anilino-3-{1-ethyl-5-[(1-methyl-4-piperidylamino)methyl]-1H-indol-2-yl}-2-propyne] the “Agt fold increase over or percent reduction vs vehicle control” value (150 mg/kg BIDx1, 24 h) was 8.18 ± 30.61 fold or %, the “Akt1 fold increase over or percent reduction vs vehicle control” value (150 mg/kg BIDx1, 24 h) was 17.84 ± 6.63 fold or % and the “Atf1 fold increase over or percent reduction vs vehicle control” value (150 mg/kg BIDx1, 24 h) was 42.27 ± 2.47 fold or %. For the same molecule, the “Atf2 fold increase over or percent reduction vs vehicle control” value (150 mg/kg BIDx1, 24 h) was 24.19 ± 2.49 fold or %, the “Bcl2a1a fold increase over or percent reduction vs vehicle control” value (150 mg/kg BIDx1, 24 h) was 39.52 ± 5.46 fold or % and the “Bcl2l1 fold increase over or percent reduction vs vehicle control” value (150 mg/kg BIDx1, 24 h) was 1.43 ± 0.11 fold or %. For the same molecule, the “Bcl3 fold increase over or percent reduction vs vehicle control” value (150 mg/kg BIDx1, 24 h) was 1.29 ± 0.31 fold or %, the “Bcl10 fold increase over or percent reduction vs vehicle control” value (150 mg/kg BIDx1, 24 h) was 38.94 ± 3.05 fold or % and the “Birc3 fold increase over or percent reduction vs vehicle control” value (150 mg/kg BIDx1, 24 h) was 1.03 ± 0.07 fold or %. For the same molecule, the “Card10 fold increase over or percent reduction vs vehicle control” value (150 mg/kg BIDx1, 24 h) was 1.32 ± 0.33 fold or %, the “Card11 fold increase over or percent reduction vs vehicle control” value (150 mg/kg BIDx1, 24 h) was 1.14 ± 0.14 fold or % and the “Casp1 fold increase over or percent reduction vs vehicle control” value (150 mg/kg BIDx1, 24 h) was 14.78 ± 4.65 fold or %. For the same molecule, the “Casp8 fold increase over or percent reduction vs vehicle control” value (150 mg/kg BIDx1, 24 h) was 9.24 ± 3.65 fold or %, the “Ccl2 fold increase over or percent reduction vs vehicle control” value (150 mg/kg BIDx1, 24 h) was 57.69 ± 14.13 fold or % and the “Ccl5 fold increase over or percent reduction vs vehicle control” value (150 mg/kg BIDx1, 24 h) was 21.82 ± 7.86 fold or %. For the same molecule, the “Cd27 fold increase over or percent reduction vs vehicle control” value (150 mg/kg BIDx1, 24 h) was 1.11 ± 0.11 fold or %, the “Cd40 fold increase over or percent reduction vs vehicle control” value (150 mg/kg BIDx1, 24 h) was 30.05 ± 5.34 fold or % and the “Cflar fold increase over or percent reduction vs vehicle control” value (150 mg/kg BIDx1, 24 h) was 1.01 ± 0.08 fold or %. The “Chuk fold increase over or percent reduction vs vehicle control” value (150 mg/kg BIDx1, 24 h) was 1.03 ± 0.07 fold or %, the “Crebbp fold increase over or percent reduction vs vehicle control” value (150 mg/kg BIDx1, 24 h) was 1.07 ± 0.06 fold or % and the “Csf1 fold increase over or percent reduction vs vehicle control” value (150 mg/kg BIDx1, 24 h) was 14.27 ± 12.28 fold or %. For the same molecule, the “Csf2 fold increase over or percent reduction vs vehicle control” value (150 mg/kg BIDx1, 24 h) was 61.29 ± 2.87 fold or %, the “Csf3 fold increase over or percent reduction vs vehicle control” value (150 mg/kg BIDx1, 24 h) was 27.25 ± 12.00 fold or % and the “Egfr fold increase over or percent reduction vs vehicle control” value (150 mg/kg BIDx1, 24 h) was 28.45 ± 5.44 fold or %. The “Egr1 fold increase over or percent reduction vs vehicle control” value (150 mg/kg BIDx1, 24 h) was 37.93 ± 8.71 fold or %, the “Eif2ak2 fold increase over or percent reduction vs vehicle control” value (150 mg/kg BIDx1, 24 h) was 1.05 ± 0.10 fold or % and the “Elk1 fold increase over or percent reduction vs vehicle control” value (150 mg/kg BIDx1, 24 h) was 12.50 ± 9.71 fold or %. For the same molecule, the “F2r fold increase over or percent reduction vs vehicle control” value (150 mg/kg BIDx1, 24 h) was 40.30 ± 2.19 fold or %, the “Fadd fold increase over or percent reduction vs vehicle control” value (150 mg/kg BIDx1, 24 h) was 5.03 ± 3.48 fold or % and the “Fasl fold increase over or percent reduction vs vehicle control” value (150 mg/kg BIDx1, 24 h) was 31.85 ± 3.66 fold or %. For the same molecule, the “Fos fold increase over or percent reduction vs vehicle control” value (150 mg/kg BIDx1, 24 h) was 12.09 ± 14.97 fold or %, the “Hmox1 fold increase over or percent reduction vs vehicle control” value (150 mg/kg BIDx1, 24 h) was 13.99 ± 4.70 fold or % and the “Icam1 fold increase over or percent reduction vs vehicle control” value (150 mg/kg BIDx1, 24 h) was 1.20 ± 0.24 fold or %. For the same molecule, the “Ifng fold increase over or percent reduction vs vehicle control” value (150 mg/kg BIDx1, 24 h) was 35.82 ± 11.11 fold or %, the “Ikbkb fold increase over or percent reduction vs vehicle control” value (150 mg/kg BIDx1, 24 h) was 1.13 ± 0.20 fold or % and the “Ikbke fold increase over or percent reduction vs vehicle control” value (150 mg/kg BIDx1, 24 h) was 1.48 ± 0.37 fold or %. The “Ikbkg fold increase over or percent reduction vs vehicle control” value (150 mg/kg BIDx1, 24 h) was 1.07 ± 0.09 fold or %, the “Il1a fold increase over or percent reduction vs vehicle control” value (150 mg/kg BIDx1, 24 h) was 13.50 ± 23.10 fold or % and the “Il1b fold increase over or percent reduction vs vehicle control” value (150 mg/kg BIDx1, 24 h) was 63.25 ± 18.78 fold or %. The “Il1r1 fold increase over or percent reduction vs vehicle control” value (150 mg/kg BIDx1, 24 h) was 31.14 ± 6.16 fold or %, the “Il10 fold increase over or percent reduction vs vehicle control” value (150 mg/kg BIDx1, 24 h) was 1.52 ± 0.15 fold or % and the “Irak1 fold increase over or percent reduction vs vehicle control” value (150 mg/kg BIDx1, 24 h) was 1.93 ± 9.47 fold or %. The “Irak2 fold increase over or percent reduction vs vehicle control” value (150 mg/kg BIDx1, 24 h) was 24.86 ± 5.53 fold or %, the “Irf1 fold increase over or percent reduction vs vehicle control” value (150 mg/kg BIDx1, 24 h) was 4.44 ± 20.95 fold or % and the “Jun fold increase over or percent reduction vs vehicle control” value (150 mg/kg BIDx1, 24 h) was 29.31 ± 10.13 fold or %. The “Lta fold increase over or percent reduction vs vehicle control” value (150 mg/kg BIDx1, 24 h) was 12.59 ± 29.28 fold or %, the “Ltbr fold increase over or percent reduction vs vehicle control” value (150 mg/kg BIDx1, 24 h) was 11.61 ± 7.41 fold or % and the “Map3k1 fold increase over or percent reduction vs vehicle control” value (150 mg/kg BIDx1, 24 h) was 1.40 ± 0.14 fold or %. The “Mapk3 fold increase over or percent reduction vs vehicle control” value (150 mg/kg BIDx1, 24 h) was 10.05 ± 3.02 fold or %, the “Myd88 fold increase over or percent reduction vs vehicle control” value (150 mg/kg BIDx1, 24 h) was 1.33 ± 0.11 fold or % and the “Nfkb1 fold increase over or percent reduction vs vehicle control” value (150 mg/kg BIDx1, 24 h) was 1.39 ± 12.08 fold or %. The “Nfkb2 fold increase over or percent reduction vs vehicle control” value (150 mg/kg BIDx1, 24 h) was 1.01 ± 0.29 fold or %, the “Nfkbia fold increase over or percent reduction vs vehicle control” value (150 mg/kg BIDx1, 24 h) was 3.07 ± 2.68 fold or % and the “Nod1 fold increase over or percent reduction vs vehicle control” value (150 mg/kg BIDx1, 24 h) was 1.24 ± 0.24 fold or %. The “Raf1 fold increase over or percent reduction vs vehicle control” value (150 mg/kg BIDx1, 24 h) was 11.54 ± 3.56 fold or %, the “Rel fold increase over or percent reduction vs vehicle control” value (150 mg/kg BIDx1, 24 h) was 1.09 ± 0.06 fold or % and the “Rela fold increase over or percent reduction vs vehicle control” value (150 mg/kg BIDx1, 24 h) was 1.02 ± 0.07 fold or %. For the same molecule, the “Relb fold increase over or percent reduction vs vehicle control” value (150 mg/kg BIDx1, 24 h) was 1.10 ± 0.14 fold or %, the “Ripk1 fold increase over or percent reduction vs vehicle control” value (150 mg/kg BIDx1, 24 h) was 1.25 ± 0.04 fold or % and the “Ripk2 fold increase over or percent reduction vs vehicle control” value (150 mg/kg BIDx1, 24 h) was 27.80 ± 7.83 fold or %. For the same molecule, the “Slc20a1 fold increase over or percent reduction vs vehicle control” value (150 mg/kg BIDx1, 24 h) was 29.02 ± 4.69 fold or %, the “Smad3 fold increase over or percent reduction vs vehicle control” value (150 mg/kg BIDx1, 24 h) was 4.92 ± 19.78 fold or % and the “Stat1 fold increase over or percent reduction vs vehicle control” value (150 mg/kg BIDx1, 24 h) was 1.17 ± 0.19 fold or %. For the same molecule, the “Tbk1 fold increase over or percent reduction vs vehicle control” value (150 mg/kg BIDx1, 24 h) was 6.71 ± 4.73 fold or %, the “Tlr1 fold increase over or percent reduction vs vehicle control” value (150 mg/kg BIDx1, 24 h) was 1.17 ± 0.16 fold or % and the “Tlr2 fold increase over or percent reduction vs vehicle control” value (150 mg/kg BIDx1, 24 h) was 4.13 ± 15.48 fold or %. The “Tlr3 fold increase over or percent reduction vs vehicle control” value (150 mg/kg BIDx1, 24 h) was 1.08 ± 0.12 fold or %, the “Tlr4 fold increase over or percent reduction vs vehicle control” value (150 mg/kg BIDx1, 24 h) was 1.11 ± 0.05 fold or % and the “Tlr6 fold increase over or percent reduction vs vehicle control” value (150 mg/kg BIDx1, 24 h) was 1.04 ± 0.10 fold or %. For the same molecule, the “Tlr9 fold increase over or percent reduction vs vehicle control” value (150 mg/kg BIDx1, 24 h) was 1.33 ± 0.19 fold or %, the “Tnf fold increase over or percent reduction vs vehicle control” value (150 mg/kg BIDx1, 24 h) was 1.84 ± 47.89 fold or % and the “Tnfaip3 fold increase over or percent reduction vs vehicle control” value (150 mg/kg BIDx1, 24 h) was 3.01 ± 14.38 fold or %. For the same molecule, the “Tnfrsf1a fold increase over or percent reduction vs vehicle control” value (150 mg/kg BIDx1, 24 h) was 1.21 ± 0.13 fold or %, the “Tnfrsf1b fold increase over or percent reduction vs vehicle control” value (150 mg/kg BIDx1, 24 h) was 1.23 ± 0.12 fold or % and the “Tnfrsf10b fold increase over or percent reduction vs vehicle control” value (150 mg/kg BIDx1, 24 h) was 2.61 ± 0.31 fold or %. For the same molecule, the “Tnfsf10 fold increase over or percent reduction vs vehicle control” value (150 mg/kg BIDx1, 24 h) was 18.51 ± 14.05 fold or %, the “Tnfsf14 fold increase over or percent reduction vs vehicle control” value (150 mg/kg BIDx1, 24 h) was 1.11 ± 0.17 fold or % and the “Tollip fold increase over or percent reduction vs vehicle control” value (150 mg/kg BIDx1, 24 h) was 1.01 ± 0.06 fold or %. For the same molecule, the “Tradd fold increase over or percent reduction vs vehicle control” value (150 mg/kg BIDx1, 24 h) was 1.17 ± 0.08 fold or %, the “Traf2 fold increase over or percent reduction vs vehicle control” value (150 mg/kg BIDx1, 24 h) was 8.21 ± 7.59 fold or % and the “Traf3 fold increase over or percent reduction vs vehicle control” value (150 mg/kg BIDx1, 24 h) was 13.02 ± 10.57 fold or %. For the same molecule, the “Traf5 fold increase over or percent reduction vs vehicle control” value (150 mg/kg BIDx1, 24 h) was 21.79 ± 2.60 fold or %, the “Traf6 fold increase over or percent reduction vs vehicle control” value (150 mg/kg BIDx1, 24 h) was 1.03 ± 0.16 fold or % and the “Zap70 fold increase over or percent reduction vs vehicle control” value (150 mg/kg BIDx1, 24 h) was 1.01 ± 0.07 fold or %. The “Agt fold increase over or percent reduction vs vehicle control” value (150 mg/kg BIDx1, 48 h) was 1.60 ± 0.41 fold or %, the “Akt1 fold increase over or percent reduction vs vehicle control” value (150 mg/kg BIDx1, 48 h) was 4.50 ± 1.92 fold or % and the “Atf1 fold increase over or percent reduction vs vehicle control” value (150 mg/kg BIDx1, 48 h) was 42.46 ± 1.99 fold or %. For the same molecule, the “Atf2 fold increase over or percent reduction vs vehicle control” value (150 mg/kg BIDx1, 48 h) was 30.02 ± 3.86 fold or %.
